Experimental data from patent US3962230A, “P-hydroxymethylphenylacetamidocephalosporins” (SmithKline & French Laboratories, Inc., priority 1975, dated 1976).
Values joined by “and” are separate entries in the source; they are usually repeats but may differ in a detail not shown here. Equal values may be shown once. Read-outs that look alike come from different tables or passages of the source.

Legend:
E. coli [1] = experiment: MIC vs E. coli; type: cell-based
Salmonella = experiment: MIC vs Salmonella; type: cell-based
Staph. Villaluz = experiment: MIC vs Staph. Villaluz; type: cell-based
Klebs. pneumo. [2] = experiment: ED50 vs Klebs. pneumo.; type: in vivo
Serratia marc. = experiment: MIC vs Serratia marc.; type: cell-based
Shigella = experiment: MIC vs Shigella; type: cell-based
S. aureus = experiment: MIC vs S. aureus; type: cell-based; settings: Staphylococcus aureus
Entero. aerog. = experiment: MIC vs Entero. aerog.; type: cell-based
Klebs. pneumo. [3] = experiment: MIC vs Klebs. pneumo.; type: cell-based
Pseudomonas sp. = experiment: MIC vs Pseudomonas sp.; type: cell-based
E. coli [4] = experiment: ED50 vs E. coli; type: in vivo; settings: Escherichia coli
Strep. faecalis = experiment: MIC vs Strep. faecalis; type: cell-based; settings: Enterococcus faecalis
[5] = Escherichia coli, second column, read-out: MIC

Row | SMILES | MIC (E. coli [1]; Escherichia coli, first column, read-out: MIC) | MIC (E. coli [1]; [5]) | MIC (Salmonella) | MIC (Staph. Villaluz) | ED50 (Klebs. pneumo. [2]; po) | ED50 (Klebs. pneumo. [2]; sc) | MIC (Serratia marc.) | MIC (Shigella) | MIC (S. aureus; first column) | MIC (S. aureus; second column) | MIC (Entero. aerog.) | MIC (Klebs. pneumo. [3]; first column) | MIC (Klebs. pneumo. [3]; second column) | MIC (Pseudomonas sp.) | ED50 (E. coli [4]; po) | ED50 (E. coli [4]; sc) | MIC (E. coli [1]) | MIC (Strep. faecalis)
1 | CC1=C(C(=O)O)N2C(=O)[C@@H](NC(=O)C(N)c3ccc(CO)cc3)[C@H]2SC1 (mixture of isomers) [Compound 47216, 7β-(DL-α-Amino-p-hydroxymethylphenylacetamido)desacetoxycephalosporanic acid] | 25 µg/mL | 50 µg/mL | 25 µg/mL | 200 µg/mL | 50 mg/kg | > 50 mg/kg | > 200 µg/mL | 25 µg/mL | 6.3 µg/mL | 25 µg/mL | 50 µg/mL | 25 µg/mL | 25 µg/mL | > 200 µg/mL | 29 mg/kg | 33 mg/kg |  | 
2 | CC(=O)OCC1=C(C(=O)O)N2C(=O)[C@@H](NC(=O)C(N)c3ccc(CO)cc3)[C@H]2SC1 (mixture of isomers) [Compound 37316, 7β-(DL-α-amino-p-hydroxymethylphenylacetamido)cephalosporanic acid] |  | 25 µg/mL | 12.5 µg/mL and 25 μg/me | 100 µg/mL | > 50 mg/kg | 20 mg/kg | > 200 µg/mL |  | 12.5 µg/mL | 6.3 µg/mL |  |  | 25 µg/mL | > 200 µg/mL | > 50 mg/kg | 8.7 mg/kg | 50 µg/mL | 200 µg/mL
